{"source": "patent US20050153304A1", "about": "“Multivariate profiling of complex biological regulatory pathways” (Government of the USA, as represented by the secretary, …, priority 2003, published 2005)", "key": {"NF-kappa B pathway": {"tested_on": "NF-kappa B pathway", "experiment": "Luciferase reporter transfection in mitogen-stimulated Jurkat T-cells, principal component analysis of mitogen profiles", "type": "cell-based, human", "settings": "co-stimulation with anti-CD28, FIG. 4 and FIG. 6", "experimental": "(§1) A human acute lymphoblastic T-cell leukemia cell line (Jurkat) was individually electroporated with 5 ug of a luciferase reporter plasmids driven by the interleukin 2 (IL-2) promoter, the NFAT element of the IL-2 promoter, the CD28RE-AP1 element of the IL-2 promoter, a consensus AP-1 element, a consensus NF-kappa B element, a consensus CRE element and the co-transfection of a Gal4 binding site or upstream activation sequence (UAS) driving a luciferase reporter in combination with either a full length Gal4-p300 fusion (FL) or a N-terminal domain fusion of p300 (amino acids 1-743). Electroporation was performed in a 96 well format with a BTX 96-well gold electrode. Cells were electroporated at 10 millions cells per well with each experiment repeated in triplicates. Following electroporation cells were stimulated with various combination of T-cell mitogens (see Table 1). Cells were harvested 5 hours after stimulation and assayed for luciferase activity by a 96 well luminometer. Data were normalized first for fold activation for each experiment and then inputted into an activation matrix where the data were normalized to percent maximum stimulation. […]"}, "[1]": {"tested_on": "Jurkat T-cells, 8 promoter elements", "experiment": "Principal component analysis of vector differences between mitogen profiles in the absence and presence of drug (8 promoter elements)", "type": "cell-based, human", "settings": "subtraction vectors versus control mitogen profiles, FIG. 5", "experimental": "The mitogen activation profiles under control conditions shown in red FIG. 4 were used to calculate subtraction vectors for each profile in the presence of a drug treatment. These vectors were then analyzed by PCA to show similarities and differences in targeting.\nas §1, with “luminometer.” for “luminometer. Data were normalized first for fold activation for each experiment and then inputted into an activation matrix where the data were normalized to percent maximum stimulation.”"}}, "data": [{"substance": "IGF-1: insulin-like growth factor one, a peptide growth factor", "values": [{"measurement": "effect on NF-kappa B pathway in activated T-cells", "setting": "NF-kappa B pathway", "value": "synergies with anti-CD28 stimulation in activated T-cells to upregulate the NF-kappa B pathway"}, {"measurement": "drug targeting profile (similarity of pathways targeted)", "setting": "[1]", "value": "appear to target the same pathway"}]}]}
